One experiment has as its system Bacillus subtilis. The format is cell-based.
A further experiment has as its system Proteus vulgaris. The format is cell-based.
The test system of another experiment is B. anthracis. Nature of the experiment: microbe, parasite or virus in culture. The format is cell-based. The note with it: Bacillus anthracis.
The test system of experiment [1] is S. aureus and methicillin-resistant S. aureus (MRSA). The experiment can be described thus: MIC100, modified NCCLS microbroth dilution (Table 6). The format is cell-based. As to conditions: Staphylococcus aureus. (In general: In broth dilution the organism is exposed to a series of concentrations in liquid medium.)
The test system of a further experiment is S. aureus. It is filed as cell-based. As to conditions: S. aureus passaged at 0.5x MIC100; by passage 16 (17 consecutive passages).
Experiment [2] relates to Lovenox inhibition of Factor Xa (FXa) activity. Nature of the experiment: Chromogenic FXa assay: antagonism of Lovenox inhibition of Factor Xa. The format is biochemical. The note with it: fixed concentration of Lovenox, chromogenic substrate S-2765. As to the method:
To assess the potential of the phenylalkynyl oligomers to act as antagonists of the low molecular weight heparins (LMWH), Compound 3 was assayed for its ability to antagonize the inhibition of Factor Xa (FXa) activity by the LMWH Lovenox was determined for Compound 3. Briefly, FXa activity in the presence of Lovenox and inhibitor was measured in a chromogenic assay using reagents purchased from DiaPharma. […] In the assay setup for Schild-plot analysis (KB determination), varying concentrations of Lovenox were incubated with AT for 5 minutes. Different concentrations of inhibitor were added to each row of wells, to construct curves of fixed inhibitor concentration, and lightly shaken and incubated for 20 minutes. FXa was then added and reaction was shaken and incubated for 10 minutes. The substrate (S-2765) was then added to initiate the clotting cascade and the 96-well plate was then shaken and read every 30 seconds for 7 minutes at 405 nm on a ThermoLabsystems Multiskan Spectrum. The single curve Lovenox titration experiments (IC50 determination) consisted of the same procedure, but with a fixed concentration of Lovenox (determined by a titration curve in the absence of inhibitor). The analysis of each curve was performed using GraphPad Prism version 4.00 for Windows.

The structures appear in SMILES notation. In brackets after ≈: the same amount, converted by molar mass. Like-named read-outs stand apart in the source and are kept apart here.

Consider one molecule from patent US8716530B2, “Facially amphiphilic polyaryl and polyarylalkynyl polymers and oligomers and uses thereof” (The Trustess of the University of Pennsylvania, priority 2004, dated 2014).

What is called IC50 is the concentration at which inhibition is half-maximal. In the experiment on Bacillus subtilis, `NCCc1cc(Br)cc(C#Cc2cccc(C#Cc3cc(Br)cc(CCN)c3)c2)c1` [Compound 3] gave an MIC100 Bacillus subtilis of 1.7 µg/mL (≈ 3.25 µM). This molecule displayed an MIC100 Proteus vulgaris with Proteus vulgaris of 3.4 µg/mL (≈ 6.51 µM). Also, the MIC turned out to be 1 µg/mL (≈ 1.91 µM) in the experiment with B. anthracis (read-out: MIC100 B. anthracis 127); 1 µg/mL (≈ 1.91 µM) with B. anthracis (read-out: MIC100 B. anthracis 1099); 2 µg/mL (≈ 3.83 µM) in the experiment on B. anthracis (read-out: MIC100 B. anthracis 7611R); 1 µg/mL (≈ 1.91 µM) with B. anthracis (read-out: MIC100 B. anthracis A3); 1 µg/mL (≈ 1.91 µM) with B. anthracis (read-out: MIC100 B. anthracis A19); 1 µg/mL (≈ 1.91 µM) in the experiment on B. anthracis (read-out: MIC100 B. anthracis A58). Besides, the MIC in the experiment with B. anthracis (read-out: MIC100 B. anthracis A60) was found to be 1 µg/mL (≈ 1.91 µM); with B. anthracis (read-out: MIC100 B. anthracis A73) it was 1 µg/mL (≈ 1.91 µM); in the experiment with B. anthracis (read-out: MIC100 B. anthracis A74) it was 2 µg/mL (≈ 3.83 µM); in the experiment on B. anthracis (read-out: MIC100 B. anthracis AC1), 1 µg/mL (≈ 1.91 µM); with B. anthracis (read-out: MIC100 B. anthracis RA3R), 1 µg/mL (≈ 1.91 µM); with B. anthracis (read-out: MIC100 B. anthracis Vollum), 2 µg/mL (≈ 3.83 µM). In addition, the MIC turned out to be 0.5 µg/mL (≈ 0.957 µM) in experiment [1] (ATCC 29213 / MRSA, strain ATCC29213 (Table 6), read-out: MIC100 S. aureus ATCC29213) and 0.5 µg/mL (≈ 0.957 µM) in experiment [1] (MRSA, methicillin-resistant S. aureus OC2878, read-out: MIC100 MRSA OC2878). In addition, in the experiment with S. aureus, the “increase in MIC on serial passage” value was “No consistent increase in the MIC”. The IC50 in experiment [2] worked out at 5.07 µM.
